Results: ChEMBL document CHEMBL1141241, “3,6-disubstituted coumarins as mechanism-based inhibitors of thrombin and factor Xa” (J Med Chem, 2005)

Legend:
[1] = molecular target: Prothrombin (Homo sapiens) (UniProt P00734); conditions: at 2 µM
Description: Inhibitory activity against human thrombin at 2 uM

[2] = molecular target: Coagulation factor X (Homo sapiens) (UniProt P00742); assay: Inhibitory activity against human FXa at 5 uM; values are per cent of control
[3] = Selectivity ratio for human thrombin over bovine trypsin

Chain of Coagulation factor X (Homo sapiens) (P00742 41-179 limits assumed): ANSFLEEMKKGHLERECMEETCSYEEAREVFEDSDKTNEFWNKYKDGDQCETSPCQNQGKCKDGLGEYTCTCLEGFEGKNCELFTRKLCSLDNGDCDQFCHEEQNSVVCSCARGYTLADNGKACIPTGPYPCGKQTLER
Chain of Coagulation factor X (Homo sapiens) (P00742 235-488 limits assumed): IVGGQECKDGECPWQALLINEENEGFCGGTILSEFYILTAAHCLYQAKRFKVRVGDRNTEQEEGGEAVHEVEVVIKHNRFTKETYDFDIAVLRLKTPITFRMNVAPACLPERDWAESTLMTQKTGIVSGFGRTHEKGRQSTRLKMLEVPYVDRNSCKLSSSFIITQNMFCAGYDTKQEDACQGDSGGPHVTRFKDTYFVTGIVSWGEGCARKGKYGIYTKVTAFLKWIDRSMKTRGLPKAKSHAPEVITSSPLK

## O=C(Sc1cccc(Cl)c1)c1cc2cc(CCl)ccc2oc1=O
[1]
  residual activity: 107%
[2]
  residual activity: 60%

## O=C(Cc1cccc(Cl)c1)c1cc2cc(CCl)ccc2oc1=O
[1]
  residual activity: 77%
[2]
  residual activity: 77%

## COc1cccc(OC(=O)c2cc3cc(CCl)ccc3oc2=O)c1
[1]
  residual activity: 66%
[2]
  residual activity: 108%

## O=C(Oc1cccc(C(F)(F)F)c1)c1cc2cc(CCl)ccc2oc1=O
[1]
  residual activity: 66%
[2]
  residual activity: 134%

## CC(=O)OCc1ccc2oc(=O)c(C(=O)Oc3cccc(Cl)c3)cc2c1
[1]
  residual activity: 91%
[2]
  residual activity: 82%

## O=C(Oc1ccc2ccccc2c1)c1cc2cc(CCl)ccc2oc1=O
[1]
  residual activity: 109%
[2]
  residual activity: 113%

## COc1cc(Cl)cc(OC(=O)c2cc3cc(CCl)ccc3oc2=O)c1
[1]
  residual activity: 103%
[2]
  residual activity: 126%

## O=C(Oc1cccc([N+](=O)[O-])c1)c1cc2cc(CCl)ccc2oc1=O
[1]
  residual activity: 80%
[2]
  residual activity: 124%

## O=C(Nc1cccc(Cl)c1)c1cc2cc(CCl)ccc2oc1=O
[1]
  residual activity: 97%
[2]
  residual activity: 89%

## O=C(Oc1ccc2ncccc2c1)c1cc2cc(CCl)ccc2oc1=O
[1]
  residual activity: 98%
[2]
  residual activity: 125%

## O=C(Oc1cccc2cccnc12)c1cc2cc(CCl)ccc2oc1=O
[1]
  residual activity: 107%
[2]
  residual activity: 114%

## O=C(Oc1cccc(Cl)c1)c1cc2cc(CCl)ccc2oc1=O
[3]
  Ratio: 25
[1]
  residual activity: 10%
[2]
  residual activity: 29%

## O=C(Oc1cccc(Cl)c1)c1cc2ccccc2oc1=O
[1]
  residual activity: 107%
[2]
  residual activity: 77%

## Cc1ccc2oc(=O)c(C(=O)Oc3cccc(Cl)c3)cc2c1
[1]
  residual activity: 70%
[2]
  residual activity: 61%

## Cc1cccc(OC(=O)c2cc3cc(CCl)ccc3oc2=O)c1
[1]
  residual activity: 35%
[2]
  residual activity: 78%

## O=C(Oc1cccc(F)c1)c1cc2cc(CCl)ccc2oc1=O
[1]
  residual activity: 24%
[2]
  residual activity: 61%

## O=C(Oc1ccc(Cl)cc1)c1cc2cc(CCl)ccc2oc1=O
[1]
  residual activity: 107%
[2]
  residual activity: 102%

## O=C(Oc1cc(Cl)cc(Cl)c1)c1cc2cc(CCl)ccc2oc1=O
[1]
  residual activity: 102%
[2]
  residual activity: 73%

## O=C(Oc1cccnc1)c1cc2cc(CCl)ccc2oc1=O
[1]
  residual activity: 113%
[2]
  residual activity: 114%

## O=C(OCc1ccccc1)c1cc2cc(CCl)ccc2oc1=O
[1]
  residual activity: 95%
[2]
  residual activity: 110%

## O=C(Oc1cccc2ccccc12)c1cc2cc(CCl)ccc2oc1=O
[1]
  residual activity: 115%
[2]
  residual activity: 109%

## Cc1ccc(OC(=O)c2cc3cc(CCl)ccc3oc2=O)cc1
[1]
  residual activity: 111%
[2]
  residual activity: 72%

## O=C(Oc1c(Cl)cccc1Cl)c1cc2cc(CCl)ccc2oc1=O
[1]
  residual activity: 101%
[2]
  residual activity: 109%

## O=C(Oc1cccc(Cl)c1Cl)c1cc2cc(CCl)ccc2oc1=O
[1]
  residual activity: 100%
[2]
  residual activity: 125%

## O=C(Oc1ccccc1I)c1cc2cc(CCl)ccc2oc1=O
[1]
  residual activity: 59%
[2]
  residual activity: 92%

## O=C(Oc1ccccc1)c1cc2cc(CCl)ccc2oc1=O
[1]
  residual activity: 60%
[2]
  residual activity: 59%

## O=C(Oc1ccc(I)cc1)c1cc2cc(CCl)ccc2oc1=O
[1]
  residual activity: 99%
[2]
  residual activity: 80%

## O=C(Oc1cc(Cl)ccc1Cl)c1cc2cc(CCl)ccc2oc1=O
[2]
  residual activity: 39%

## O=C(Oc1cccc(I)c1)c1cc2cc(CCl)ccc2oc1=O
[1]
  residual activity: 27%
[2]
  residual activity: 73%

## Cc1ccccc1OC(=O)c1cc2cc(CCl)ccc2oc1=O
[1]
  residual activity: 79%
[2]
  residual activity: 103%

## O=C(c1cccc(Cl)c1)c1cc2cc(CCl)ccc2oc1=O
[1]
  residual activity: 100%
[2]
  residual activity: 83%

## O=C(Oc1ccccc1Cl)c1cc2cc(CCl)ccc2oc1=O
[1]
  residual activity: 78%
[2]
  residual activity: 134%

## O=C(Oc1ccccn1)c1cc2cc(CCl)ccc2oc1=O
[1]
  residual activity: 100%
[2]
  residual activity: 89%

## O=C(Oc1cccc(Br)c1)c1cc2cc(CCl)ccc2oc1=O
[3]
  Ratio: 55
[1]
  residual activity: 8%
[2]
  residual activity: 33%
